ChEMBL document CHEMBL1201862, “PubChem BioAssay data set” (2004)
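1) Cells in 96-well plates. 2) Compound, 48 h, 5 concentrations. 3) Linear interpolation between surrounding doses. 4) Unreached endpoint = highest concentration. GI50 marks 50% less growth.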 Calls of active or inactive are those of the source. No stated cut-off is given here; in the data, active = GI50 up to about 1.1 µM and inactive = higher.

How the values were obtained:
Assay in all cases: DTP human tumour cell line panel, 48 h
NCI-H460 = tested on: NCI-H460
BT-549 = tested on: BT-549
UO-31 = tested on: UO-31
MCF7 = tested on: MCF7
TK-10 = tested on: TK-10
T47D = tested on: T47D
KM12 = tested on: KM12
SF-295 = tested on: SF-295
K562 = tested on: K562
NCI-H522 = tested on: NCI-H522
SF-539 = tested on: SF-539
A498 = tested on: A498
M14 = tested on: M14
SNB-75 = tested on: SNB-75
PC-3 = tested on: PC-3
SW-620 = tested on: SW-620
Malme-3M = tested on: Malme-3M
OVCAR-3 = tested on: OVCAR-3
HOP-92 = tested on: HOP-92
RXF 393 = tested on: RXF 393

| SMILES | GI50 (NCI-H460) | GI50 (BT-549) | GI50 (UO-31) | GI50 (MCF7) | GI50 (TK-10) | GI50 (T47D) | GI50 (KM12) | GI50 (SF-295) | GI50 (K562) | GI50 (NCI-H522) | GI50 (SF-539) | GI50 (A498) | GI50 (M14) | GI50 (SNB-75) | GI50 (PC-3) | GI50 (SW-620) | GI50 (Malme-3M) | GI50 (OVCAR-3) | GI50 (HOP-92) | GI50 (RXF 393) |
| --- | --- | --- | --- | --- | --- | --- | --- | --- | --- | --- | --- | --- | --- | --- | --- | --- | --- | --- | --- | --- |
| CCCC(=O)Nc1ncnc2c1ncn2C1OC2COP(=O)(O)OC2C1OC(=O)CCC (centres undefined) | > 100 µM (inactive) | > 1000 µM (inactive) | 312 µM (inactive) | > 100 µM (inactive) | > 1000 µM (inactive) | > 100 µM (inactive) | > 100 µM (inactive) | > 100 µM (inactive) | > 100 µM (inactive) | > 100 µM (inactive) | 382 µM (inactive) | 31.9 µM (inactive) | > 100 µM (inactive) | 0.0246 µM (active) | > 100 µM (inactive) | > 100 µM (inactive) | > 100 µM (inactive) | > 100 µM (inactive) | > 1000 µM (inactive) | – |
| CNC(=S)N/N=C(\C(=N/NC(=S)NC)c1ccccn1)c1ccccn1 | 0.348 µM (active) | 14.4 µM (inactive) | 2.48 µM (inactive) | < 0.0355 µM (active) | 4.04 µM (inactive) | – | 14.2 µM (inactive) | 3.15 µM (inactive) | 4.55 µM (inactive) | 1.77 µM (inactive) | 45.8 µM (inactive) | 4.58 µM (inactive) | 2.14 µM (inactive) | 20.8 µM (inactive) | 1.03 µM (active) | 1.24 µM (inactive) | 4.73 µM (inactive) | 0.31 µM (active) | 15.2 µM (inactive) | 5.07 µM (inactive) |
| COC(=O)c1c(O)c2c(c3c1OC(C)(C)CC3)OC(C)(C)CC2 | 22.3 µM (inactive) | 20 µM (inactive) | 18.8 µM (inactive) | 18.2 µM (inactive) | > 10 µM (inactive) | 21.8 µM (inactive) | 16.9 µM (inactive) | 17 µM (inactive) | 25.1 µM (inactive) | 15.8 µM (inactive) | 18 µM (inactive) | 18.7 µM (inactive) | 19.1 µM (inactive) | > 10 µM (inactive) | 17 µM (inactive) | 17.5 µM (inactive) | 0.824 µM (active) | 20 µM (inactive) | – | – |
| CCN(CC)C(=O)N1CN(c2ccccc2)C2(CCN(CCCSc3ccc(F)cc3)CC2)C1=O | – | 13.5 µM (inactive) | 7.19 µM (inactive) | 4.19 µM (inactive) | 10.3 µM (inactive) | 4.01 µM (inactive) | 10.2 µM (inactive) | 12.1 µM (inactive) | 8.32 µM (inactive) | 13.2 µM (inactive) | 8.34 µM (inactive) | – | 3.56 µM (inactive) | 20.6 µM (inactive) | 6.56 µM (inactive) | 6.75 µM (inactive) | 15.9 µM (inactive) | 5.13 µM (inactive) | – | 16.2 µM (inactive) |
| N#CC(c1cc(Cl)ncn1)c1nc2ccccc2s1 (centres undefined) | 4.27 µM (inactive) | 5 µM (inactive) | 16.6 µM (inactive) | – | 4.81 µM (inactive) | 2.67 µM (inactive) | 3.87 µM (inactive) | 15.6 µM (inactive) | 4.93 µM (inactive) | 2.07 µM (inactive) | 5.42 µM (inactive) | 21.8 µM (inactive) | 17.1 µM (inactive) | 13.6 µM (inactive) | – | 4.62 µM (inactive) | 10.8 µM (inactive) | 7.01 µM (inactive) | 3.57 µM (inactive) | 16.1 µM (inactive) |
| N/C(CCSCCSCC/C(N)=N\O)=N\O | > 100 µM (inactive) | > 100 µM (inactive) | > 100 µM (inactive) | > 100 µM (inactive) | > 100 µM (inactive) | > 100 µM (inactive) | > 100 µM (inactive) | – | > 100 µM (inactive) | > 100 µM (inactive) | > 100 µM (inactive) | – | > 100 µM (inactive) | > 100 µM (inactive) | > 100 µM (inactive) | > 100 µM (inactive) | > 100 µM (inactive) | > 100 µM (inactive) | > 100 µM (inactive) | > 100 µM (inactive) |
| COc1cn2c(cc1=O)COc1ccc(-c3ccccc3)cc1-2 | 37.6 µM (inactive) | 24.7 µM (inactive) | 28.4 µM (inactive) | 21.1 µM (inactive) | 20 µM (inactive) | 20.5 µM (inactive) | 52.1 µM (inactive) | > 78.2 µM (inactive) | 89.3 µM (inactive) | 27.9 µM (inactive) | – | – | 45.4 µM (inactive) | 35.8 µM (inactive) | 43.2 µM (inactive) | > 100 µM (inactive) | 42.6 µM (inactive) | > 55.7 µM (inactive) | 46.9 µM (inactive) | > 82.6 µM (inactive) |
| CS(=O)(=O)C[S+]([O-])C[S+]([O-])C[S+]([O-])CC(NC(=O)CCC(N)C(=O)O)C(=O)O (centres undefined) | > 100 µM (inactive) | > 100 µM (inactive) | > 100 µM (inactive) | > 100 µM (inactive) | > 100 µM (inactive) | > 100 µM (inactive) | > 100 µM (inactive) | > 100 µM (inactive) | > 100 µM (inactive) | > 100 µM (inactive) | > 100 µM (inactive) | – | > 100 µM (inactive) | > 100 µM (inactive) | > 100 µM (inactive) | > 100 µM (inactive) | – | > 100 µM (inactive) | > 100 µM (inactive) | – |
